This data set relates to CCRIS mutagenicity, Ames/micronucleus/aberration tests. Put plainly: CCRIS mutagenicity studies.
The mark [1] stands for this setting: Test System: AMES SALMONELLA TYPHIMURIUM, Strain/Indicator: TA98, Metabolic Activation: NONE, Method: PREINCUBATION
Setting [2] is: Test System: AMES SALMONELLA TYPHIMURIUM, Strain/Indicator: TA100, Metabolic Activation: NONE, Method: PREINCUBATION
Setting [3] is: Test System: AMES SALMONELLA TYPHIMURIUM, Strain/Indicator: TA98, Metabolic Activation: NONE, Method: STANDARD PLATE.
The mark [4] stands for this setting: Test System: AMES SALMONELLA TYPHIMURIUM, Strain/Indicator: TA100, Metabolic Activation: NONE, Method: STANDARD PLATE.

Activity calls are given as the source filed them. How the calls were made is not given here.

`C#CCNC(=NCCSCc1nc[nH]c1C)NC#N`: the mutagenic call was “inactive; negative” under setting [1]; “inactive; negative” (Test System: AMES SALMONELLA TYPHIMURIUM, Strain/Indicator: TA98, Metabolic Activation: RAT, LIVER, S-9, SODIUM PHENOBARBITAL AND BETA-NAPHTHOFLAVONE, Method: PREINCUBATION); “inactive; negative” under setting [2]; “inactive; negative” (Test System: AMES SALMONELLA TYPHIMURIUM, Strain/Indicator: TA100, Metabolic Activation: RAT, LIVER, S-9, SODIUM PHENOBARBITAL AND BETA-NAPHTHOFLAVONE, Method: PREINCUBATION); “inactive; negative” (Test System: AMES SALMONELLA TYPHIMURIUM, Strain/Indicator: TA1535, Metabolic Activation: NONE, Method: PREINCUBATION); “inactive; negative” (Test System: AMES SALMONELLA TYPHIMURIUM, Strain/Indicator: TA1535, Metabolic Activation: RAT, LIVER, S-9, SODIUM PHENOBARBITAL AND BETA-NAPHTHOFLAVONE, Method: PREINCUBATION). The mutagenic call was “inactive; negative” (Test System: AMES SALMONELLA TYPHIMURIUM, Strain/Indicator: TA1537, Metabolic Activation: NONE, Method: PREINCUBATION); “inactive; negative” (Test System: AMES SALMONELLA TYPHIMURIUM, Strain/Indicator: TA1537, Metabolic Activation: RAT, LIVER, S-9, SODIUM PHENOBARBITAL AND BETA-NAPHTHOFLAVONE, Method: PREINCUBATION); “inactive; negative” (Test System: AMES SALMONELLA TYPHIMURIUM, Strain/Indicator: TA1538, Metabolic Activation: NONE, Method: PREINCUBATION); “inactive; negative” (Test System: AMES SALMONELLA TYPHIMURIUM, Strain/Indicator: TA1538, Metabolic Activation: RAT, LIVER, S-9, SODIUM PHENOBARBITAL AND BETA-NAPHTHOFLAVONE, Method: PREINCUBATION); “inactive; negative” (Test System: CHINESE HAMSTER V-79, Strain/Indicator: V-79/6-THIOGUANINE, Metabolic Activation: NONE, Method: STANDARD PLATE); “inactive; negative” (Test System: CHINESE HAMSTER V-79, Strain/Indicator: V-79/6-THIOGUANINE, Metabolic Activation: RAT, LIVER, S-9, SODIUM PHENOBARBITAL AND BETA-NAPHTHOFLAVONE, Method: STANDARD PLATE). For the same molecule, the mutagenic call runs as follows: (Test System: CHINESE HAMSTER V-79, Strain/Indicator: V-79/OUABAIN, Metabolic Activation: NONE, Method: STANDARD PLATE) “inactive; negative”; (Test System: CHINESE HAMSTER V-79, Strain/Indicator: V-79/OUABAIN, Metabolic Activation: RAT, LIVER, S-9, SODIUM PHENOBARBITAL AND BETA-NAPHTHOFLAVONE, Method: STANDARD PLATE) “inactive; negative”; (Test System: E. COLI, Strain/Indicator: WP2 (PKM101), Metabolic Activation: NONE, Method: PREINCUBATION) “inactive; negative”; (Test System: E. COLI, Strain/Indicator: WP2 (PKM101), Metabolic Activation: RAT, LIVER, S-9, SODIUM PHENOBARBITAL AND BETA-NAPHTHOFLAVONE, Method: PREINCUBATION) “inactive; negative”; (Test System: E. COLI, Strain/Indicator: WP2, Metabolic Activation: NONE, Method: PREINCUBATION) “inactive; negative”; (Test System: E. COLI, Strain/Indicator: WP2, Metabolic Activation: RAT, LIVER, S-9, SODIUM PHENOBARBITAL AND BETA-NAPHTHOFLAVONE, Method: PREINCUBATION) “inactive; negative”. Besides, the mutagenic call was “inactive; negative” (Test System: E. COLI, Strain/Indicator: WP2 UVRA (PKM101), Metabolic Activation: NONE, Method: PREINCUBATION); “inactive; negative” (Test System: E. COLI, Strain/Indicator: WP2 UVRA (PKM101), Metabolic Activation: RAT, LIVER, S-9, SODIUM PHENOBARBITAL AND BETA-NAPHTHOFLAVONE, Method: PREINCUBATION); “inactive; negative” (Test System: E. COLI, Strain/Indicator: WP2 UVRA, Metabolic Activation: NONE, Method: PREINCUBATION); “inactive; negative” (Test System: E. COLI, Strain/Indicator: WP2 UVRA, Metabolic Activation: RAT, LIVER, S-9, SODIUM PHENOBARBITAL AND BETA-NAPHTHOFLAVONE, Method: PREINCUBATION).
On to `O=[N+]([O-])c1c2c(c3ccc4cccc5ccc1c3c45)CCCC2O` (stereo unspecified), for which the mutagenic call is, setting by setting: under setting [3], “inactive; negative”; under setting [4], “inactive; negative”.
Consider `CC/C=C/C=C/C=C/C=C/C=C\OC[C@@H](O)CO`, for which the mutagenic call was “active; positive” under setting [2] and “active; positive” (Test System: AMES SALMONELLA TYPHIMURIUM, Strain/Indicator: TA100, Metabolic Activation: RAT, LIVER, S-9, AROCLOR 1254, Method: PREINCUBATION).
Regarding `CC(=O)Nc1ccc2ncccc2c1`, the mutagenic call by setting is: under setting [1], “inactive; negative”; (Test System: AMES SALMONELLA TYPHIMURIUM, Strain/Indicator: TA98, Metabolic Activation: RAT, LIVER, S-9, KANECHLOR 500, Method: PREINCUBATION) “inactive; negative”; under setting [2], “inactive; negative”; (Test System: AMES SALMONELLA TYPHIMURIUM, Strain/Indicator: TA100, Metabolic Activation: RAT, LIVER, S-9, KANECHLOR 500, Method: PREINCUBATION) “active; positive”.
As to `Cc1cccc(NO)c1C`, the mutagenic call under setting [2] was “active; positive” and the mutagenic call (Test System: AMES SALMONELLA TYPHIMURIUM, Strain/Indicator: TA100, Metabolic Activation: RAT, LIVER, S-9, PCB, Method: PREINCUBATION) is “active; positive”.
In the case of `Cc1occc(=O)c1[O-].Cc1occc(=O)c1[O-].Cc1occc(=O)c1[O-].[Al+3]`, the mutagenic call was “inactive; negative” (Test System: AMES SALMONELLA TYPHIMURIUM, Strain/Indicator: TA92, Metabolic Activation: NONE, Method: STANDARD PLATE); “inactive; negative” under setting [3]; “inactive; negative” under setting [4]; “inactive; negative” (Test System: AMES SALMONELLA TYPHIMURIUM, Strain/Indicator: TA104, Metabolic Activation: NONE, Method: STANDARD PLATE).
For the molecule `Cc1cc([N+](=O)[O-])c(C)c2c1[nH]c1ccc(O)cc12`, the mutagenic call under setting [3] is “active; positive”; the mutagenic call (Test System: AMES SALMONELLA TYPHIMURIUM, Strain/Indicator: TA98, Metabolic Activation: RAT LIVER S-9, AROCLOR 1254, Method: STANDARD PLATE) was “inactive; negative”; the mutagenic call under setting [4] was “inactive; negative”; the mutagenic call (Test System: AMES SALMONELLA TYPHIMURIUM, Strain/Indicator: TA100, Metabolic Activation: RAT LIVER S-9, AROCLOR 1254, Method: STANDARD PLATE) is “inactive; negative”; the mutagenic call (Test System: AMES SALMONELLA TYPHIMURIUM, Strain/Indicator: TA1537, Metabolic Activation: NONE, Method: STANDARD PLATE) was “active; positive”; the mutagenic call (Test System: AMES SALMONELLA TYPHIMURIUM, Strain/Indicator: TA1537, Metabolic Activation: RAT LIVER S-9, AROCLOR 1254, Method: STANDARD PLATE) is “active; positive”. In addition, the mutagenic call is, setting by setting: (Test System: AMES SALMONELLA TYPHIMURIUM, Strain/Indicator: TA1977, Metabolic Activation: NONE, Method: STANDARD PLATE) “active; positive”; (Test System: AMES SALMONELLA TYPHIMURIUM, Strain/Indicator: TA1977, Metabolic Activation: RAT LIVER S-9, AROCLOR 1254, Method: STANDARD PLATE) “active; positive”.
Take `COc1cc(O)c2c(=O)c3c(OC)cc4c(c3oc2c1OC)[C@@H]1C=CO[C@@H]1O4`: the mutagenic call runs as follows: (Test System: AMES SALMONELLA TYPHIMURIUM, Strain/Indicator: TA98, Metabolic Activation: RAT, LIVER, S-9, PHENOBARBITAL, Method: STANDARD PLATE) “inactive; negative”; (Test System: AMES SALMONELLA TYPHIMURIUM, Strain/Indicator: TA100, Metabolic Activation: RAT, LIVER, S-9, PHENOBARBITAL, Method: STANDARD PLATE) “active; positive”.

The record behind these values is PubChem BioAssay AID1259407 (Chemical Carcinogenesis Research Information System (CCRIS), 2018).
